ChEMBL document CHEMBL1154969, “LXXLL peptide mimetics as inhibitors of the interaction of vitamin D receptor with coactivators” (Bioorg Med Chem Lett, 2010)

How the values were obtained:
[1] = molecular target: T1, Vitamin D3 receptor (Homo sapiens) (UniProt P11473); assay: Displacement of 1,25-dihydroxyvitamin D3 from GST-tagged VDR ligand binding domain assessed as inhibition of interaction with coactivator proteins at 30 uM by TR-FRET assay
T1 sequence (whole entry): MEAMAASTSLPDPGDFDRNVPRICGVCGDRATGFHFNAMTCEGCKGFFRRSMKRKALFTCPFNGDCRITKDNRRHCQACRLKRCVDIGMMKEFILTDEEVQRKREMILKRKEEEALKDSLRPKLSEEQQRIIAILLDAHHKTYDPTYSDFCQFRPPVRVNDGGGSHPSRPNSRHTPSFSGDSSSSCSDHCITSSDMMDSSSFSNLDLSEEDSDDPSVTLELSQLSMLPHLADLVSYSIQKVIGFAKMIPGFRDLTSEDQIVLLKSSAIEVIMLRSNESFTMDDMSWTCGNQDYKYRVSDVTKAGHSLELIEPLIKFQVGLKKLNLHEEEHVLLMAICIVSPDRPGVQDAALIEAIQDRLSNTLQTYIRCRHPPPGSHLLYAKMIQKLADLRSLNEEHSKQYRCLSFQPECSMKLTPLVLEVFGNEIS

[2] = molecular target: T1, Vitamin D3 receptor (Homo sapiens); assay: Antagonist activity at human recombinant VDR LBD expressed in HEK293 cells assessed as inhibition of 3 nM 1,25-(OH)2D3-induced transcriptional activation at 30 uM after 16 to 18 hrs by GAL4-dependent luciferase reporter gene assay; format: functional, cell-based
[3] = molecular target: T1, Vitamin D3 receptor (Homo sapiens); assay: (§1) Antagonist activity at human recombinant VDR LBD expressed in HEK293 cells assessed as inhibition of 300 nM 1,25-(OH)2D3-induced transcriptional activation after 16 to 18 hrs by GAL4-dependent luciferase reporter gene assay; format: functional, cell-based
Vitamin D3 receptor [4] = molecular target: T2, Vitamin D3 receptor (Homo sapiens, UniProt P11473); assay: as §1; format: functional, cell-based
T2 sequence (P11473 whole entry): T1 sequence (whole entry)

[5] = molecular target: T1, Vitamin D3 receptor (Homo sapiens); assay: Antagonist activity at human recombinant VDR LBD expressed in HEK293 cells assessed as inhibition of 300 nM 1,25-(OH)2D3-induced transcriptional activation at 30 uM after 16 to 18 hrs by GAL4-dependent luciferase reporter gene assay; format: functional, cell-based
Estrogen receptor beta [6] = molecular target: T3, Estrogen receptor beta (Homo sapiens, UniProt Q92731); assay: Antagonist activity at human recombinant ERbeta LBD expressed in HEK293 cells assessed as inhibition of 0.3 nM estradiol-induced transcriptional activation after 16 to 18 hrs by GAL4-dependent luciferase reporter gene assay; format: functional, cell-based
T3 sequence (Q92731 whole entry, the tested form may be a part): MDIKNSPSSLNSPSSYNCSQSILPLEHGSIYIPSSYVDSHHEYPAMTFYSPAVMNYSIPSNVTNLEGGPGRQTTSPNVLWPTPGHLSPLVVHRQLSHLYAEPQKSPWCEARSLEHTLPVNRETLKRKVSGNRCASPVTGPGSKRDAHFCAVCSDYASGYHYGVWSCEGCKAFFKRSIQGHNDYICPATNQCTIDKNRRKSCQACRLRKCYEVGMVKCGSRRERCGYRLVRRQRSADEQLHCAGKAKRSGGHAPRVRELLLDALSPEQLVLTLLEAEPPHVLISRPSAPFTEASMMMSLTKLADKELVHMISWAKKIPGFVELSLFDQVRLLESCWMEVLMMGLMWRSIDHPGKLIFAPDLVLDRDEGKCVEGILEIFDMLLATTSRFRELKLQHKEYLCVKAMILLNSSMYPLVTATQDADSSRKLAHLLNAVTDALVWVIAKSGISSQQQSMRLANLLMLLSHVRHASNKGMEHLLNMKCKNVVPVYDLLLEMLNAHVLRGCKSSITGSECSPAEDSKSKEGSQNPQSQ

Vitamin D3 receptor [7] = molecular target: T2, Vitamin D3 receptor; assay: Antagonist activity at human recombinant VDR LBD expressed in HEK293 cells assessed as inhibition of 3 nM 1,25-(OH)2D3-induced transcriptional activation after 16 to 18 hrs by GAL4-dependent luciferase reporter gene assay; format: functional, cell-based
Estrogen receptor [8] = molecular target: T4, Estrogen receptor (Homo sapiens, UniProt P03372); assay: Antagonist activity at human recombinant ERalpha LBD expressed in HEK293 cells assessed as inhibition of 0.3 nM estradiol-induced transcriptional activation after 16 to 18 hrs by GAL4-dependent luciferase reporter gene assay; format: functional, cell-based
T4 sequence (P03372 whole entry): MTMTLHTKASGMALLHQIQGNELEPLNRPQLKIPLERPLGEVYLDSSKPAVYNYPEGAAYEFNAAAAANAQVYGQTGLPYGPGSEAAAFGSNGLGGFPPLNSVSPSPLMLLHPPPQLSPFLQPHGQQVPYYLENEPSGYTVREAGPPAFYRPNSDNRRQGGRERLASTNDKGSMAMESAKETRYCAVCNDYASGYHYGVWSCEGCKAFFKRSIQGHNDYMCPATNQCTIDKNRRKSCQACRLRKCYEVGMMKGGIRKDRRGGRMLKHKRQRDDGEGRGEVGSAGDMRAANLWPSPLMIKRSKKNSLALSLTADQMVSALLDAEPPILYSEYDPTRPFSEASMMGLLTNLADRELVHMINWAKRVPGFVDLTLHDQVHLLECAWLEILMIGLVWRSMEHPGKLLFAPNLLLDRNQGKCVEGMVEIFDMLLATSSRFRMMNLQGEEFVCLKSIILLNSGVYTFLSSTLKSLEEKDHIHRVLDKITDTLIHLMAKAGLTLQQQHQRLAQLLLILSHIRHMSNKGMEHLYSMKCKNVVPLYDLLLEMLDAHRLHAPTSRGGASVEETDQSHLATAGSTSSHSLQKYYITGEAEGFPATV

Vitamin D3 receptor [9] = molecular target: T2, Vitamin D3 receptor; assay: Displacement of 1,25-dihydroxyvitamin D3 from GST-tagged VDR ligand binding domain assessed as inhibition of interaction with coactivator proteins by TR-FRET assay
Estrogen receptor beta [10] = molecular target: T3, Estrogen receptor beta; assay: Antagonist activity at human recombinant ERbeta LBD expressed in HEK293 cells assessed as inhibition of 0.3 nM estradiol-induced transcriptional activation at 30 uM after 16 to 18 hrs by GAL4-dependent luciferase reporter gene assay; format: functional, cell-based
[11] = molecular target: T5, Estrogen receptor (Homo sapiens) (UniProt P03372); settings: HEK293, 30 uM
T5 sequence (whole entry): T4 sequence (P03372 whole entry)
Description: Antagonist activity at human recombinant ERalpha LBD expressed in HEK293 cells assessed as inhibition of 0.3 nM estradiol-induced transcriptional activation at 30 uM after 16 to 18 hrs by GAL4-dependent luciferase reporter gene assay

Androgen receptor = molecular target: T6, Androgen receptor (Homo sapiens, UniProt P10275); assay: Inhibition of AR
T6 sequence (P10275 whole entry): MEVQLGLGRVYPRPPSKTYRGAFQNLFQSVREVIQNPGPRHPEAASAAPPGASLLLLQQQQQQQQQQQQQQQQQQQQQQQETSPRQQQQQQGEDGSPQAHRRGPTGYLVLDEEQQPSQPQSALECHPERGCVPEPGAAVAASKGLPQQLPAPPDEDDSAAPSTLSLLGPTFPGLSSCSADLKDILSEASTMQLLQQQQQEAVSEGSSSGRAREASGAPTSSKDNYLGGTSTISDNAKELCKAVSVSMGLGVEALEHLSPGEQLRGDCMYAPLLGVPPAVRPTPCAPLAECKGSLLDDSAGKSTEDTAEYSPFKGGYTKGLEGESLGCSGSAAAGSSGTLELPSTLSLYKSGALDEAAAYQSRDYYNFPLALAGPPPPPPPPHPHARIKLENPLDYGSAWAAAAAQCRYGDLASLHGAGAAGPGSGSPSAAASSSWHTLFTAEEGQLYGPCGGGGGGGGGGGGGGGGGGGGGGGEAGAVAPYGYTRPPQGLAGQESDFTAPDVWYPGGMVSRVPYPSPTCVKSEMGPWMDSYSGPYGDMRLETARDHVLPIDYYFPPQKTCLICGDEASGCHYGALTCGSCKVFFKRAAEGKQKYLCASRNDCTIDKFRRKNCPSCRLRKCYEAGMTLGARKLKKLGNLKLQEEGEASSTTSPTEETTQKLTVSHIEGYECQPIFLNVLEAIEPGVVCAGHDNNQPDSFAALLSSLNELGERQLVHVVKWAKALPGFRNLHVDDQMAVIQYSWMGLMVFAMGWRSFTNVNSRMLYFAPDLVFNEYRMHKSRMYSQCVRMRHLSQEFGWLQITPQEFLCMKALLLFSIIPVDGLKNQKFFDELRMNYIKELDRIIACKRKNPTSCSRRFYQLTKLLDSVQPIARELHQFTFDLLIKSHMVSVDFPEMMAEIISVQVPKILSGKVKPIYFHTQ

Estrogen receptor [12] = molecular target: T4, Estrogen receptor; assay: Inhibition of ER
[13] = molecular target: T1, Vitamin D3 receptor (Homo sapiens); assay: Displacement of 1,25-dihydroxyvitamin D3 from GST-tagged VDR ligand binding domain assessed as inhibition of interaction with coactivator proteins at 10 uM by TR-FRET assay
[14] = molecular target: T1, Vitamin D3 receptor (Homo sapiens); assay: Antagonist activity at human recombinant VDR LBD expressed in HEK293 cells assessed as inhibition of 300 nM 1,25-(OH)2D3-induced transcriptional activation at 10 uM after 16 to 18 hrs by GAL4-dependent luciferase reporter gene assay; format: functional, cell-based
[15] = molecular target: T1, Vitamin D3 receptor (Homo sapiens); assay: Antagonist activity at human recombinant VDR LBD expressed in HEK293 cells assessed as inhibition of 3 nM 1,25-(OH)2D3-induced transcriptional activation at 10 uM after 16 to 18 hrs by GAL4-dependent luciferase reporter gene assay; format: functional, cell-based

**Q.** For CC(C)CCN1Cc2cc(CC(C)C)c(N)cc2N[C@@H](CC(C)C)C1=O, which inhibition [1] is on record?
**A.** The inhibition was 48%.

**Q.** What about the inhibition [2] of the same molecule?
**A.** The inhibition was 47%.

**Q.** And the inhibition [3]?
**A.** Its inhibition is 8%.

**Q.** And the IC50 (Vitamin D3 receptor [4])?
**A.** Its IC50 is 30 µM.

**Q.** What about the inhibition [5] of the same molecule?
**A.** The inhibition was 53%.

**Q.** And the IC50 (Estrogen receptor beta [6])?
**A.** The IC50 was over 30 µM.

**Q.** And the IC50 (Vitamin D3 receptor [7])?
**A.** Its IC50 is 30 µM.

**Q.** And the IC50 (Estrogen receptor [8])?
**A.** Its IC50 is over 30 µM.

**Q.** What about the IC50 (Vitamin D3 receptor [9]) of the same molecule?
**A.** The IC50 was 30 µM.

**Q.** What about the inhibition (Estrogen receptor beta [10]) of the same molecule?
**A.** The inhibition was 18%.

**Q.** CC(C)=Cc1cc2c(cc1N)N[C@@H](CC(C)C)C(=O)N(CCC(C)C)C2 was tested. Which inhibition [1] did it give?
**A.** Its inhibition is 76%.

**Q.** And the inhibition [2]?
**A.** Its inhibition is 68%.

**Q.** What about the IC50 (Vitamin D3 receptor [4]) of the same molecule?
**A.** The IC50 was 23 µM.

**Q.** What about the inhibition [5] of the same molecule?
**A.** The inhibition was 59%.

**Q.** And the IC50 (Estrogen receptor beta [6])?
**A.** Its IC50 is 22 µM.

**Q.** And the IC50 (Vitamin D3 receptor [7])?
**A.** The IC50 was 17 µM.

**Q.** What about the IC50 (Estrogen receptor [8]) of the same molecule?
**A.** Its IC50 is over 30 µM.

**Q.** What about the IC50 (Vitamin D3 receptor [9]) of the same molecule?
**A.** The IC50 was 20 µM.

**Q.** What about the inhibition [11] of the same molecule?
**A.** Its inhibition is 8%.

**Q.** What about the inhibition (Estrogen receptor beta [10]) of the same molecule?
**A.** The inhibition was 56%.

**Q.** With CC(C)CNc1cc(CCc2cccc3ccccc23)nc(NCc2cccc3ccccc23)n1 as the molecule, how does the Ki (Androgen receptor) read?
**A.** The Ki was 1.5 µM.

**Q.** For CC(C)CCN1Cc2cc(CC(C)C)c(NCCNC(=O)OC(C)(C)C)cc2N[C@@H](CC(C)C)C1=O, which IC50 (Vitamin D3 receptor [9]) is on record?
**A.** Its IC50 is 13 µM.

**Q.** How did the Ki (Estrogen receptor [12]) turn out when CC(C)CNc1cc(CC(C)C)nc(NCC(C)C)n1 was run?
**A.** Its Ki is 29 µM.

**Q.** C=C1/C(=C\C=C2/CCC[C@]3(C)[C@@H]([C@H](C)C[C@H]4C[C@@](C)(O)C(=O)N4CCc4ccccc4)CC[C@@H]23)C[C@@H](O)C[C@@H]1O was tested. Which inhibition [13] did it give?
**A.** The inhibition was 87%.

**Q.** And the IC50 (Vitamin D3 receptor [4])?
**A.** Its IC50 is 3.3 µM.

**Q.** What about the inhibition [14] of the same molecule?
**A.** The inhibition was 66%.

**Q.** What about the IC50 (Vitamin D3 receptor [7]) of the same molecule?
**A.** Its IC50 is 0.22 µM.

**Q.** What about the inhibition [15] of the same molecule?
**A.** Its inhibition is 98%.

**Q.** For CC(C)CCN1Cc2cc(CC(C)C)c(NCCN)cc2N[C@@H](CC(C)C)C1=O, which IC50 (Vitamin D3 receptor [9]) is on record?
**A.** The IC50 was 28 µM.

**Q.** CC(C)Cc1cc(O)c(=O)n(Cc2ccc3ccccc3c2)c1-c1ccnc(Cc2ccccc2)c1 was tested. Which Ki (Estrogen receptor [12]) did it give?
**A.** Its Ki is 4.2 µM.

**Q.** CC(=O)NCCNc1cc2c(cc1CC(C)C)CN(CCC(C)C)C(=O)[C@H](CC(C)C)N2 was tested. Which inhibition [1] did it give?
**A.** The inhibition was 43%.

**Q.** What about the IC50 (Vitamin D3 receptor [9]) of the same molecule?
**A.** Its IC50 is over 30 µM.

**Q.** Which inhibition [1] does the source give for CC(C)CCN1Cc2cc(CC(C)C)c(NC(=N)N)cc2N[C@@H](CC(C)C)C1=O here?
**A.** The inhibition was 46%.

**Q.** And the IC50 (Vitamin D3 receptor [9])?
**A.** Its IC50 is over 30 µM.
